Key:
[1] = Plasma and urine levels of GA metabolites in EHBRs orally treated with GA (LC-MS/MS); type: in vivo, Eisai hyperbilirubinuria rats (EHBRs); conditions: for level in accumulated urine for 12 h / concentration at 12 h / level in accumulated urine for 12 h relative to that of 3MGA: GA 200 mg/kg orally; for concentration at 12 h: oral, read-out: plasma concentration at 12 h after treatment
Description: (§1) Female SD rats or EHBRs (9-week-old) were anesthetized by an intraperitoneal (i.p.) injection of urethane (1 g/kg) and their jugular veins were exposed. […] Feces were homogenized in phosphate-buffered saline (PBS; 0.15 M, pH 7.2), centrifuged (1.2 × 10^4 g, 10 min), and the supernatants were collected. After 1 week as a washout period, female SD rats were anesthetized by an i.p. injection of urethane (1 g/kg) and their biliary tract was cannulated. […] Aliquots (10 µl) of plasma, urine, homogenate of feces, or bile were mixed with 20 µl of subtilisin (0.91 U/ml) and incubated at 37 °C for 30 min, followed by the addition of 70 µl of astragaloside IV solution (1 µg/ml in ethanol containing 0.5% formic acid, used as internal standard), and kept at −20 °C for 30 min.

anti-3MGA-mAb = test: Dot-blot analysis using anti-3MGA-mAb; type: binding; conditions: 1 µg spotted on PES membrane, imaging analysis
Description: We confirmed the cross-reactivity of anti-3MGA-mAb against these GL metabolites. GL, GA, 3MGA, and compounds 1, 2, and 3 (1 µg each) were spotted on a polyethersulfone (PES) membrane, fixed onto the membrane, and colored using an anti-3MGA-mAb (Fig. 5A). […] Thus, the anti-3MGA-mAb cross-reacted to some extent with other metabolites of GL.
Figure 5 Dot-blot analysis and ELISA detection range of GL metabolites using anti-3MGA-monoclonal antibody (mAb). GL metabolites (1 µg each) were spotted on a PES membrane, and colored using an anti-3MGA-mAb (A). Competitive ELISA using anti-3MGA-mAb for GL metabolites was performed. Data are represented from a single analysis (n = 1) (B). […] Data are represented as mean ± S.D. (n = 3). Two-way ANOVA indicated a significant difference between GA and 3 (F1,36 = 4441, P < 0.001), concentrations (F8,36 = 315, P < 0.001), and their interactions (F8,36 = 281, P < 0.001). The calibrated line for the absorbance-concentration profile of 3 was calculated by the linear least-squares method, and the regression formula is shown in graph (C).
Anti-3MGA-mAb and 3MGA-human serum albumin (HSA)-conjugate were developed by the same protocols established in our previous studies[22],[23]. GL, GA, 3MGA, 1, 2, and 3 (1 µg each) were spotted on a Mustang^TM E positively charged PES membrane (Pall Co., East Hills, NY, USA). The membrane was then immersed into 0.1 M MES buffer (pH 4.7) containing 2% EDC and 1% NHS, and kept at room temperature for 1 h to activate the carboxyl group. After washing with distilled water, PBS containing 1% bovine serum albumin (BSA) was added to the membrane, which was shaken at room temperature for 2 h for fixation. Next, the membrane was blocked with PBS containing 5% skim milk (Morinaga-milk, Tokyo, Japan) and 0.1% Tween 20 at 4 °C overnight to reduce nonspecific adsorption. After washing twice with PBS containing 0.1% Tween 20 (T-PBS) for 5 min, the membrane was incubated with anti-3MGA-mAb and kept at room temperature for 3 h with constant agitation. The membrane was then washed twice with T-PBS for 5 min and treated with 1:500 diluted horseradish peroxidase (HRP)-labeled goat anti-mouse IgG (whole molecule; Sigma, St. Louis, MO, USA) antibody in T-PBS for 1 h with gentle shaking. Finally, the membrane was washed twice with T-PBS and once with PBS, and exposed to 1 mg/ml of freshly prepared 4-chloro-1-naphthol-0.03% H2O2 in PBS for 15 min at room temperature. The reaction was stopped by washing with distilled water, and the immunostained PES membrane was allowed to dry and then photographed. The positively stained areas were measured using Image J 1.46r (http://imageJ.nih.gov/ij).

[2] = Fecal excretion of GA metabolites in SD rats injected i.v. with GA; type: in vivo; conditions: GA 0.2 mg/kg i.v.
Description: (§2) Then, bile samples were collected for 4 h (E).
as §1

[3] = Plasma and urine levels of GA metabolites in SD rats orally treated with GA (LC-MS/MS); type: in vivo; conditions: GA 0.20 g/kg orally; for concentration at 12 h: female, SD (Sprague-Dawley), rat, plasma, po, 0.2 g/kg
Description: as §2, §1

[4] = Binding to serum albumin by ultrafiltration of pooled EHBR plasma; conditions: female, EHBR (Eisai hyperbilirubinuria rat), oral, 200 mg/kg
rat kidney slices = test: Uptake into rat kidney slices from pooled EHBR plasma; type: in vitro ADME, SD rats; conditions: pH 5.5, 2 h
Description: Kidney slices were prepared from SD rats and incubated with the pooled plasma, the pH of which pH was adjusted to 5.5 at 4 °C or 37 °C for 2 h. Figure 4A–C show the amounts of 2, 3, and GA accumulated in the kidney slices.
Figure 4 Uptake of 2 and 3 into rat kidney slices (A–C) or into MDCK II cells stably expressing OAT1 or OAT3 (D–F). Female EHBRs were orally treated with GA (200 mg/kg), and their plasma samples were collected […] after the treatment. The concentrations of compounds 2, 3, and GA in the plasma samples of EHBRs were 7.8, 11.5, and 7.0 µM, respectively. Kidneys were collected from normal SD rats, and the kidney slices were incubated with the plasma samples of EHBRs at 37 °C or 4 °C for 2 h (A–C). MDCK II cells stably expressing OAT1 or OAT3 were incubated with the plasma samples of EHBRs at 37 °C for 15 min (D–F). Then, the concentrations of compounds 2, 3, and GA in kidney slices or the cells were measured by LC-MS/MS. Data are expressed as mean ± S.E. (n = 3 for (C, D), and (E); n = 6 for (A, B), and F). *P < 0.05 and **P < 0.01 vs 4 °C group by Student’s t-test for (A–C), and vs mock cells by Dunnett’s multiple t-test for (D–F).
Uptake studies using rat kidney slices and cells stably expressing OAT1 and OAT3 were conducted with the same protocol as in our previous study. We used the same pooled plasma of female EHBRs orally treated with GA for 12 h as in our previous study.

[5] = female, EHBR (Eisai hyperbilirubinuria rat), rat, plasma

Row | SMILES | level in accumulated urine for 12 h [1] | concentration at 12 h [1, 5] | detection in feces collected for 24 h [2] | amount in accumulated urine collected 12 h after oral treatment [3] | level in accumulated urine for 12 h relative to that of 3MGA [1] | concentration at 12 h ([4]; plasma ultrafiltrate) | concentration at 12 h ([4]; plasma) | Tmax ([1]; female, EHBR (Eisai hyperbilirubinuria rat), rat, plasma, po, 0.2 g/kg, GA 0.20 g/kg orally, read-out: time of maximum plasma concentration) | uptake by kidney slices at 37 °C compared with 4 °C (rat kidney slices) | time of plasma peak after oral treatment [3] | concentration at 12 h [3] | area of positive staining in dot-blot (anti-3MGA-mAb)
1 | CC1(C)[C@@H](O[C@@H]2O[C@H](C(=O)O)[C@@H](O)[C@H](O)[C@H]2O)CC[C@]2(C)[C@H]3C(=O)C=C4[C@@H]5C[C@@](C)(C(=O)O)CC[C@]5(C)CC[C@@]4(C)[C@]3(C)CC[C@@H]12 [3MGA, 3-monoglucuronyl glycyrrhetinic acid, reference compound] | 0.31 nmol | 0.09 µM | not found | below detectable levels |  |  |  |  |  |  |  | 3395 pixels
2 | CC1(C)[C@@H](OS(=O)(=O)O)CC[C@]2(C)[C@H]3C(=O)C=C4[C@@H]5C[C@@](C)(C(=O)O[C@@H]6O[C@H](C(=O)O)[C@@H](O)[C@H](O)[C@H]6O)C[C@H](O)[C@]5(C)CC[C@@]4(C)[C@]3(C)CC[C@@H]12 [compound 1, 22α-hydroxy-18β-glycyrrhetyl-3-O-sulfate-30-glucuronide] |  | ~10 µM | not found | below detectable levels | 8 fold |  |  |  |  |  |  | 606 pixels
3 | CC1(C)[C@@H](OS(=O)(=O)O)CC[C@]2(C)[C@H]3C(=O)C=C4[C@@H]5C[C@@](C)(C(=O)O)C[C@H](O)[C@]5(C)CC[C@@]4(C)[C@]3(C)CC[C@@H]12 [compound 2, 22α-hydroxy-18β-glycyrrhetyl-3-O-sulfate] |  | ~10 µM | found | below detectable levels | 110 fold | < 0.0032 µM | 7.8 µM |  | significantly higher |  |  | 79 pixels

Now from value to compound, other results behind:

Row | level in accumulated urine for 12 h [1] | concentration at 12 h [1, 5] | detection in feces collected for 24 h [2] | amount in accumulated urine collected 12 h after oral treatment [3] | level in accumulated urine for 12 h relative to that of 3MGA [1] | concentration at 12 h ([4]; plasma ultrafiltrate) | concentration at 12 h ([4]; plasma) | Tmax ([1]; female, EHBR (Eisai hyperbilirubinuria rat), rat, plasma, po, 0.2 g/kg, GA 0.20 g/kg orally, read-out: time of maximum plasma concentration) | uptake by kidney slices at 37 °C compared with 4 °C (rat kidney slices) | time of plasma peak after oral treatment [3] | concentration at 12 h [3] | SMILES | area of positive staining in dot-blot (anti-3MGA-mAb)
4 | 0.05 nmol | ~10 µM |  |  |  | < 0.016 µM | 7 µM | 1 h | not different | 1 h | 4.7 µM | CC1(C)[C@@H](O)CC[C@]2(C)[C@H]3C(=O)C=C4[C@@H]5C[C@@](C)(C(=O)O)CC[C@]5(C)CC[C@@]4(C)[C@]3(C)CC[C@@H]12 [GA, glycyrrhetinic acid, reference compound] | 97 pixels
5 |  | ~10 µM | found | 0.03 nmol | 62 fold | < 0.0032 µM | 11.5 µM |  | significantly higher |  | 0.3 µM | CC1(C)[C@@H](OS(=O)(=O)O)CC[C@]2(C)[C@H]3C(=O)C=C4[C@@H]5C[C@@](C)(C(=O)O)CC[C@]5(C)CC[C@@]4(C)[C@]3(C)CC[C@@H]12 [compound 3, 18β-glycyrrhetyl-3-O-sulfate] | 146 pixels
